SMILES strings stand for the structures. The source made the active and inactive calls. No cut-off for these calls is given here.

Data on 48 molecules can be found in ChEMBL document CHEMBL6120947, “Synthesis and Antiosteoporotic Characterization of Diselenyl Maleimides: Discovery of a Potent Agent for the Treatment of Osteoporosis by Targeting RANKL” (J Med Chem, 2024).

For series [1], the system named is RAW264.7. The experiment in a line: Inhibition of osteoclastogenesis in RANKL-induced osteoclast differentiation in mouse RAW264.7 cells incubated for 4 days by TRAP staining based analysis. In kind it is functional, cell-based. The note with it: time 4.0 day.
For series [2], the system named is RAW264.7. The experiment in a line: Cytotoxicity against mouse RAW264.7 cells assessed as decrease in cell viability at 1 uM incubated for 48 hrs by MTT assay. In kind it is toxicity, cell-based. The note with it: raw264.7, 48 h. On the technique in general: Tetrazolium assays rely on reduction of a dye to a coloured formazan, in cell work by metabolically active cells.

As to `Cc1ccccc1[Se]C1=C([Se]c2ccccc2C)C(=O)N(Cc2ccccc2)C1=O`, the inhibition result in series [1] was “inactive”.
Turning to `O=C1C([Se]c2ccccc2Br)=C([Se]c2ccccc2Br)C(=O)N1c1ccccc1`, in series [1], the inhibition entry was “inactive”. The Activity entry in series [2] is on record as “Toxic”.
Regarding `O=C1C([Se]c2ccccc2)=C([Se]c2ccccc2)C(=O)N1Cc1ccc(F)cc1`, in series [1], the inhibition result is “inactive”.
In the case of `O=C1C([Se]c2ccccc2)=C([Se]c2ccccc2)C(=O)N1Cc1ccc(I)cc1`, in series [1], the inhibition result is “inactive”.
Same read-out and setting: in the case of `O=C1C([Se]c2ccccc2)=C([Se]c2ccccc2)C(=O)N1Cc1cccc(F)c1` it was “inactive”.
`COc1ncccc1[Se]C1=C([Se]c2cccnc2OC)C(=O)N(c2ccccc2)C1=O`: the inhibition result in series [1] was “inactive”. Moreover, the Activity result in series [2] is recorded as “Toxic”.
For `Cc1cccc(CN2C(=O)C([Se]c3ccccc3)=C([Se]c3ccccc3)C2=O)c1` the same measures were “inactive” and “Toxic”.
Consider `O=C1C([Se]c2ccccc2Cl)=C([Se]c2ccccc2Cl)C(=O)N1c1ccccc1`, for which the inhibition result in series [1] was “Active”.
For `O=C1C([Se]c2ccccc2)=C([Se]c2ccccc2)C(=O)N1Cc1ccccc1Cl`, the inhibition result in series [1] is “inactive”.
On to `O=C1C([Se]c2ccccc2)=C([Se]c2ccccc2)C(=O)N1c1ccccc1`, for which the inhibition entry in series [1] was “inactive”.
The same measure, in the same setting: as for `CCC[Se]C1=C([Se]CCC)C(=O)N(c2ccccc2)C1=O`, the entry is “inactive”.
Same read-out and setting: as for `CC[Se]C1=C([Se]CC)C(=O)N(c2ccccc2)C1=O`, the entry is “inactive”; as for `CC(=O)c1ccc(N2C(=O)C([Se]c3ccccc3)=C([Se]c3ccccc3)C2=O)cc1`, “Active”; as for `O=C1C([Se]c2ccc(Cl)cc2)=C([Se]c2ccc(Cl)cc2)C(=O)N1Cc1ccccc1`, “inactive”.
For the molecule `O=C1C([Se]c2cccc(Br)c2)=C([Se]c2cccc(Br)c2)C(=O)N1Cc1ccccc1`, in series [1], the inhibition entry was “inactive”.
On the same count and under the same terms, as for `O=C1C([Se]c2ccccc2)=C([Se]c2ccccc2)C(=O)N1c1c(Cl)cc(Cl)cc1Cl`, the entry is “inactive”; as for `O=C1C([Se]c2ccccc2)=C([Se]c2ccccc2)C(=O)N1C1CCCCC1`, “inactive”.
Same read-out and setting: as for `O=C1C([Se]c2ccccc2)=C([Se]c2ccccc2)C(=O)N1Cc1ccc(Cl)cc1`, the entry is “inactive”.
On the same count and under the same terms, in the case of `Cc1cccc([Se]C2=C([Se]c3cccc(C)c3)C(=O)N(c3ccccc3)C2=O)c1` it was “Active”.
For the molecule `COc1ccccc1[Se]C1=C([Se]c2ccccc2OC)C(=O)N(Cc2ccccc2)C1=O`, the inhibition result in series [1] was “inactive”.
Still for that read-out and setting: in the case of `N#Cc1ccc(CN2C(=O)C([Se]c3ccccc3)=C([Se]c3ccccc3)C2=O)cc1` it was “inactive”.
Take `O=C1C([Se]c2ccccc2)=C([Se]c2ccccc2)C(=O)N1Cc1cccc(Cl)c1`: the inhibition entry in series [1] is “inactive”. In addition, the Activity result in series [2] was “Toxic”.
As to `Cc1ccccc1CN1C(=O)C([Se]c2ccccc2)=C([Se]c2ccccc2)C1=O`, in series [1], the inhibition entry was “inactive”.
Turning to `C[Se]C1=C([Se]C)C(=O)N(Cc2ccccc2)C1=O`, the inhibition result in series [1] is “inactive”.
Same read-out and setting: in the case of `CCN1C(=O)C([Se]c2ccccc2)=C([Se]c2ccccc2)C1=O` it was “inactive”.
The same measure, in the same setting: in the case of `O=C1C=CC(=O)N1Cc1ccccc1` it was “inactive”.
In the case of `O=C1C([Se]c2ccccc2Cl)=C([Se]c2ccccc2Cl)C(=O)N1Cc1ccccc1`, the inhibition entry in series [1] was “inactive”.
Still for that read-out and setting: as for `O=C1C(Sc2ccccc2)=C(Sc2ccccc2)C(=O)N1Cc1ccccc1`, the entry is “inactive”.
The same measure, in the same setting: in the case of `O=C1C=C([Se]c2ccccc2)C(=O)N1Cc1ccccc1` it was “inactive”.
`CCc1ccc(N2C(=O)C([Se]c3ccccc3)=C([Se]c3ccccc3)C2=O)cc1`: the inhibition result in series [1] is “Active”. In addition, the Activity result in series [2] was “Toxic”.
As for `O=C1C([Se]c2cccc(F)c2)=C([Se]c2cccc(F)c2)C(=O)N1Cc1ccccc1`, the inhibition result in series [1] was “inactive”.
The same measure, in the same setting: in the case of `Cc1cccc([Se]C2=C([Se]c3cccc(C)c3)C(=O)N(Cc3ccccc3)C2=O)c1` it was “inactive”; in that of `COC(=O)CCN1C(=O)C([Se]c2ccccc2)=C([Se]c2ccccc2)C1=O`, “inactive”.
On the same count and under the same terms, as for `CC(C)(C)N1C(=O)C([Se]c2ccccc2)=C([Se]c2ccccc2)C1=O`, the entry is “inactive”; as for `O=C1C([Se]c2cccc([N+](=O)[O-])c2)=C([Se]c2cccc([N+](=O)[O-])c2)C(=O)N1Cc1ccccc1`, “inactive”.
`O=C1C([Se]c2ccccc2)=C([Se]c2ccccc2)C(=O)N1Cc1ccccc1Br`: the inhibition entry in series [1] is “inactive”. Moreover, in series [2], the Activity result is on record as “Toxic”.
In the case of `O=C1C([Se]c2cccc(Cl)c2)=C([Se]c2cccc(Cl)c2)C(=O)N1Cc1ccccc1`, the inhibition entry in series [1] is “inactive”.
Still for that read-out and setting: as for `N#Cc1ccc([Se]C2=C([Se]c3ccc(C#N)cc3)C(=O)N(Cc3ccccc3)C2=O)cc1`, the entry is “inactive”.
On to `N#Cc1cccc([Se]C2=C([Se]c3cccc(C#N)c3)C(=O)N(c3ccccc3)C2=O)c1`, for which, in series [1], the inhibition entry was “inactive”. The Activity result in series [2] is listed as “Toxic”.
Take `O=C1C([Se]c2ccc(Br)cc2)=C([Se]c2ccc(Br)cc2)C(=O)N1c1ccccc1`: in series [1], the inhibition entry is “inactive”. The Activity entry in series [2] was “Toxic”.
On to `COc1ccc([Se]C2=C([Se]c3ccc(OC)cc3)C(=O)N(Cc3ccccc3)C2=O)cc1`, for which the inhibition entry in series [1] is “inactive”.
Same read-out and setting: in the case of `O=C1C([Se]c2ccccc2)=C([Se]c2ccccc2)C(=O)N1c1ccc(Br)cc1` it was “inactive”.
On the same count and under the same terms, in the case of `O=C1NC(=O)C([Se]c2ccccc2)=C1[Se]c1ccccc1` it was “Active”; in that of `CN1C(=O)C([Se]c2ccccc2)=C([Se]c2ccccc2)C1=O`, “inactive”.
Take `Cc1ccc(CN2C(=O)C([Se]c3ccccc3)=C([Se]c3ccccc3)C2=O)cc1`: the inhibition entry in series [1] was “inactive”. Moreover, in series [2], the Activity result is “Toxic”.
For `COc1ccc(CN2C(=O)C([Se]c3ccccc3)=C([Se]c3ccccc3)C2=O)cc1`, the inhibition result in series [1] was “inactive”.
Turning to `Cc1ccc([Se]C2=C([Se]c3ccc(C)cc3)C(=O)N(c3ccccc3)C2=O)cc1`, in series [1], the inhibition result is “Active”. Besides, the Activity result in series [2] is recorded as “Toxic”.
Turning to `O=C1C([Se]c2ccccc2)=C([Se]c2ccccc2)C(=O)N1Cc1cccc(Br)c1`, in series [1], the inhibition entry is “inactive”.
